Test results published in PMC3921447, “Homologous and heterologous desensitization of guanylyl cyclase-B signaling in GH3 somatolactotropes” (Cell and Tissue Research, 2013).
Read-outs that look alike come from different tables or passages of the source. Ends that are not written are not given here.

Assays:
[1] = system: human airway smooth muscle cells; settings: ref Hamad and Knox [1999]; cited from earlier work
Text: (§1) The other major mechanism mediating heterologous desensitization of GC-A and GC-B signaling is the PKC pathway (Potter et al. [2006]). We examined the effects of pre-treatment with TRH, PMA, or PACAP. […] This is in agreement with the predominant expression of vasoactive intestinal peptide activated receptor 2, which is known preferentially to activate cAMP and PKA (Hao et al. [2006]). In contrast, pre-treatments with two known activators of PKC, TRH and PMA do ...

GC-B [2] = target: T1, GC-B (Rattus norvegicus, UniProt P16067); test: Heterologous desensitization of CNP-stimulated (GC-B) cGMP accumulation in GH3 cells; type: cell-based; settings: then 100 nM CNP 15 min with 1 mM IBMX, n = 3
T1 construct: rapid homologous desensitization of endogenous GC-B receptors in GH3 cells; endogenous in cells; host or cells: GH3 rat somatolactotrope cells
T1 sequence (P16067 17-1047): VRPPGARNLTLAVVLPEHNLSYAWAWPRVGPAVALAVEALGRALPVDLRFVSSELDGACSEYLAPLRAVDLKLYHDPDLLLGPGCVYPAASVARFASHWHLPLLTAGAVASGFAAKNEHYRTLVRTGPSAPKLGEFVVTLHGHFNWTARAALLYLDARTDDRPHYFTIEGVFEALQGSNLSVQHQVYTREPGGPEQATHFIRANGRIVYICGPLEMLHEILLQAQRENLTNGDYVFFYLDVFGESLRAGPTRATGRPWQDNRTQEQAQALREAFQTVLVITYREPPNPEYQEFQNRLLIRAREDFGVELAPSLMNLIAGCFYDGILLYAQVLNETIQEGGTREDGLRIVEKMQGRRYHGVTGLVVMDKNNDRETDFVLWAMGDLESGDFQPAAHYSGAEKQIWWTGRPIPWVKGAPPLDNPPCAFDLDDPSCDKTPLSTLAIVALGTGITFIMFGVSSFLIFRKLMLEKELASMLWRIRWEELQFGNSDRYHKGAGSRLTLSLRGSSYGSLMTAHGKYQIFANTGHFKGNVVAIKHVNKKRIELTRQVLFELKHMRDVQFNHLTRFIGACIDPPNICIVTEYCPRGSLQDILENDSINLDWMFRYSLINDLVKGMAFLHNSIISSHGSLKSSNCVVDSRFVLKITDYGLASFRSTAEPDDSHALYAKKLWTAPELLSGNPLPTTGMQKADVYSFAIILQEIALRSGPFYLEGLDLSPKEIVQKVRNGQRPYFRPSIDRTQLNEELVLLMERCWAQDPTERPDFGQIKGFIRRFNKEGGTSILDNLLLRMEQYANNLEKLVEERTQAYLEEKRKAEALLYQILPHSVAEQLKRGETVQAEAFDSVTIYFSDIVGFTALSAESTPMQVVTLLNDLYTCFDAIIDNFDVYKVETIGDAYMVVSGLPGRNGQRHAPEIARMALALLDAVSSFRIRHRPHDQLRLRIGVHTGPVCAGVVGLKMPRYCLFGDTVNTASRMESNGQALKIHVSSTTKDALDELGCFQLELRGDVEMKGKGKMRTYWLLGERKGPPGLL
Text: (§2) Sphingolipids and calcium have been implicated in regulating natriuretic peptide signaling (Abbey-Hosch et al. [2004]; Abbey and Potter [2002]). Therefore, we examined the role of sphingosine-1-phosphate (S1P) on CNP-stimulated cGMP accumulation. […] However, S1P pre-treatment did cause desensitization of CNP-stimulated cGMP accumulation (by 30 ± 2.7 % compared with control, **P < 0.01).
(§3) Fig. 6 Evidence of sphingosine-mediated but not calcium-mediated, heterologous desensitization of GC-B signaling in GH3 somatolactotrope cells. GH3 cells were pre-treated with PSS containing either (a, b) 10 μM sphingosine-1-phosphate (S1P) or (c, d) 1 μM A23187 (calcium ionophore) for 30 min in the absence of IBMX, before a 15-min stimulation with either 100 nM CNP (a, c) or 100 nM ANP (b, d) in the presence of 1 mM IBMX.
(§4) Subsequent experiments examined the potential regulation of GC-B signaling by other peptide hormones. To determine whether the GC-B receptor underwent heterologous desensitization in GH3 cells, the effect of three known activators of PKC on CNP-stimulated cGMP accumulation was analyzed. […] To establish whether the TRH-induced heterologous desensitization of GC-B signaling was PKC-dependent, GH3 cells were pre-treated with either 0 or 1 μM GF109203X for 30 min to inhibit PKC activity. After this, cells were further pre-treated in the absence or presence of GF109203X and 0 or 100 nM TRH for a further 30 min, prior to stimulation with 0 or 100 nM CNP for a final 15-min stimulation in the presence of 1 mM IBMX.
(§5) Fig. 7 Protein kinase C (PKC)-dependent heterologous desensitization mediates the effects of thyrotrophin-releasing hormone (TRH) on CNP-stimulated GC-B signaling in GH3 somatolactotrope cells. a GH3 cells were pre-treated with PSS containing either 0 or 100 nM TRH, phorbol-12-myristate-13-acetate (PMA), or pituitary adenylate cyclase-activating polypeptide (PACAP) for 30 min in the absence of IBMX, before a 15-min stimulation with either 0 or 100 nM CNP in the presence of 1 mM IBMX.

GC-B [3] = settings: 293 T cells; ref Abbey-Hosch et al. [2005]; cited from earlier work
Text: as §1

GH3 cells = test: Basal cGMP accumulation in GH3 cells after pre-treatment; type: cell-based, rat; settings: 100 nM TRH, PMA or PACAP, 30 min pre-treatment; ns, P > 0.05; Fig. 7a
Text: as §2, §3, §4, §5

GC-B [4] = settings: αT3-1 cells, cited from earlier work
Text: Experimental paradigms to investigate receptor desensitization are often performed in one of two ways: time-course studies of a single continuous exposure to ligand or pre-treatment and subsequent re-exposure to the same ligand. Our current studies involved the use of both of these approaches to examine particulate guanylyl cyclase signaling in GH3 cells, similar to previous studies investigating PACAP signaling in gonadotropes (McArdle and Forrest-Owen [1997]). Time-course studies of CNP-stimulated cGMP accumulation in GH3 cells have shown a rapid elevation of cGMP levels within 5 min of CNP ... || The other major mechanism mediating heterologous desensitization of GC-A and GC-B signaling is the PKC pathway (Potter et al. [2006]). We examined the effects of pre-treatment with TRH, PMA, or PACAP. […] This is in agreement with the predominant expression of vasoactive intestinal peptide activated receptor 2, which is known preferentially to activate cAMP and PKA (Hao et al. [2006]). In contrast, pre-treatments with two known activators of PKC, TRH and PMA do ...

growth hormone secretion = settings: ref Hartt et al. [1995]; Shimekake et al. [1994]; cited from earlier work
Text: Both humans and mice with mutations in the genes encoding either CNP or its receptor, GC-B, suffer from severe growth disorders (Chusho et al. [2001]) and, in some cases, growth hormone deficiency (Tamura et al. [2004]). Despite significant homology between the three natriuretic peptides and between their receptors, mutations in the genes encoding ANP, BNP, or GC-A fail to phenocopy CNP/GC-B-disrupted mice (Kishimoto et al. [2011]). Our recent observations of GC-B expression in normal fetal pituitary tissue and in a range of human pituitary adenomas (including those from acromegalics) strongly ...

## CN(C)CCCn1cc(C2=C(c3c[nH]c4ccccc34)C(=O)NC2=O)c2ccccc21 [GF109203X]
[1]
  reversal of PKC-dependent desensitization: capable of reversing the effect, as has been described previously in human airway smooth muscle cells
GC-B [2]; 1 μM GF109203X 30 min, then GF109203X + 100 nM TRH 30 min, ns compared with control, Fig. 7b
  CNP-stimulated cGMP, % of control response to CNP (TRH desensitization reversed to): 76.4 ± 17.2%

## CCCCCCCCCCCCCC(=O)O[C@@H]1[C@@H](C)[C@@]2(O)[C@@H](C=C(CO)C[C@]3(O)C(=O)C(C)=C[C@@H]23)[C@@H]2C(C)(C)[C@]12OC(C)=O [PMA, phorbol-12-myristate-13-acetate]
GC-B [3]
  desensitization of GC-B activity: shown to desensitize GC-B activity in 293 T cells and αT3-1 cells
GC-B [2]; 100 nM, 30 min pre-treatment without IBMX, ***P < 0.001, Fig. 7a
  reduction in CNP-stimulated cGMP accumulation compared with control: 51.9 ± 2.8%
GH3 cells
  basal cGMP accumulation: failed to alter basal cGMP accumulation
GC-B [4]; ref Fowkes et al. [2000]
  desensitization of GC-B activity: shown to desensitize GC-B activity in 293 T cells and αT3-1 cells

## Nc1nc2c(ncn2[C@@H]2O[C@@H]3COP(=O)(O)O[C@H]3[C@H]2O)c(=O)[nH]1 [cGMP, cyclic guanosine 3’,5’ monophosphate]
Growth hormone secretion
  growth hormone secretion: act as growth hormone secretogogs

## gonadotrophin-releasing hormone (QHWSYGLRPG; ends and bridges not checked; UniProt P01148 24-33, looked up)
GC-B [4]; ref McArdle et al. [1994], Fowkes et al. [2000]
  heterologous desensitization of GC-B signaling: can cause the heterologous desensitization of GC-B signaling in αT3-1 cells
